Each compound was assayed against T1, human LPAR1 (Homo sapiens, UniProt Q92633) (assay: Arrestin assay (Arrestin Reporter EDG2-bla U2OS), inhibition of LPA-stimulated signal). Details: TangoEDG2-bla U2OS cells expressing human LPAR1; 0.25 μM LPA; read-out: Arrestin Reporter EDG2-bla U2OS Human IC50.
T1 construct: host or cells: TangoEDG2-bla U2OS cells
Format: cell-based
Summary of the method: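 IC50 comes from a variable-slope 4-parameter fit of % inhibition, calculated from the beta-lactamase FRET ratio (emission 460/530 nm, excitation 409 nm, 2 h development at RT). Compounds, 10 μM down to 0.00006 μM in 3-fold steps, were given 1 h before 0.25 μM final LPA for 3 h in TangoEDG2-bla U2OS cells.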

T1 sequence (Q92633 whole entry): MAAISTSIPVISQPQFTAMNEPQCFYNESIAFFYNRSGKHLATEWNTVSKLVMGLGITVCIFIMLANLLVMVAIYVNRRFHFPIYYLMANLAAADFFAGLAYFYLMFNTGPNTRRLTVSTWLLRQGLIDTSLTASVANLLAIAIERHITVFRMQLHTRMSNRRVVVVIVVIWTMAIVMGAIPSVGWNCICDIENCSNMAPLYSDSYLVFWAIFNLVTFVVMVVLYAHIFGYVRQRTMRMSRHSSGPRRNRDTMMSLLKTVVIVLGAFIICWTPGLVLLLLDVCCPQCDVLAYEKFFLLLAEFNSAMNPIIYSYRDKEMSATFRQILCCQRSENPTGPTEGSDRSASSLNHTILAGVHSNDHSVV

Row | IC50 [nM] | SMILES
1 | 57.2 | CC1(C)OCc2cnn(C3(C(=O)Nc4ccc(Cl)cc4OC(F)F)CCN(CC4(C(=O)O)CCOCC4)CC3)c21 [Compound 84, 4-[[4-[[4-chloro-2-(difluoromethoxy)phenyl]carbamoyl]-4-(6,6-dimethyl-4H-furo[3,4-c]pyrazol-1-yl)-1-piperidyl]methyl]tetrahydropyran-4-carboxylic acid]

Same assay, conditions: TangoEDG2-bla U2OS cells expressing human LPAR1; 0.25 μM LPA; read-out: Arrestin Reporter EDG2-bla U2OS Human Merged IC50

Row | IC50 [nM] | SMILES
2 | 43 | COc1cnn(C2(C(=O)Nc3ccc(Cl)cc3OC(F)F)CCN(CC3(C(=O)O)CCOCC3)CC2)c1C(C)C [Compound 81, 4-[[4-[[4-chloro-2-(difluoromethoxy)phenyl]carbamoyl]-4-(5-isopropyl-4-methoxy-pyrazol-1-yl)-1-piperidyl]methyl]tetrahydropyran-4-carboxylic acid]
3 | 21.9 | CC(C)CC(=O)N1CCC(CN2CCC(C(=O)Nc3ccc(Cl)cc3OC(F)F)(n3nccc3C(C)C)CC2)(C(=O)O)CC1 [Compound 82, 4-[[4-[[4-chloro-2-(difluoromethoxy)phenyl]carbamoyl]-4-(5-isopropylpyrazol-1-yl)-1-piperidyl]methyl]-1-(3-methylbutanoyl)piperidine-4-carboxylic acid]
4 | 24.4 | CC(C)c1ccnn1C1(C(=O)Nc2ccc(Cl)cc2OC(F)F)CCN(CC(C)(C)C(=O)O)CC1 [Compound 83, 3-[4-[[4-chloro-2-(difluoromethoxy)phenyl]carbamoyl]-4-(5-isopropylpyrazol-1-yl)-1-piperidyl]-2,2-dimethyl-propanoic acid]
5 | 53.7 | CCOCC1(C(=O)N2CCC(CN3CCC(C(=O)Nc4ccc(Cl)cc4OC(F)F)(n4nccc4C(C)C)CC3)(C(=O)O)CC2)CC1 [Compound 85, 4-[[4-[[4-chloro-2-(difluoromethoxy)phenyl]carbamoyl]-4-(5-isopropylpyrazol-1-yl)-1-piperidyl]methyl]-1-[1-(ethoxymethyl)cyclopropanecarbonyl] piperidine-4-carboxylic acid]
6 | 20.2 | CC(C)c1ccnn1C1(C(=O)Nc2ccc(Cl)cc2OC(F)F)CCN(C[C@@H](C)C(=O)O)CC1 [Compound 86, (2R)-3-[4-[[4-chloro-2-(difluoromethoxy)phenyl]carbamoyl]-4-(5-isopropylpyrazol-1-yl)-1-piperidyl]-2-methyl-propanoic acid]
7 | 32.3 | CC(C)c1ccnn1C1(C(=O)Nc2ccc(Cl)cc2OC(F)F)CCN(C[C@H](C)C(=O)O)CC1 [Compound 87, (2S)-3-[4-[[4-chloro-2-(difluoromethoxy)phenyl]carbamoyl]-4-(5-isopropylpyrazol-1-yl)-1-piperidyl]-2-methyl-propanoic acid]
8 | 13.3 | CC(C)OC(=O)N1CCC(CN2CCC(C(=O)Nc3ccc(Cl)cc3OC(F)F)(n3nccc3C(C)C)CC2)(C(=O)O)CC1 [Compound 88]
9 | 5.54 | CC(C)c1ccnn1C1(C(=O)Nc2ccc(Cl)cc2OC(F)F)CCN(CC2(C(=O)O)CCN(C(=O)OCC(C)(C)C)CC2)CC1 [Compound 90, 4-[[4-[[4-chloro-2-(difluoromethoxy)phenyl]carbamoyl]-4-(5-isopropylpyrazol-1-yl)-1-piperidyl]methyl]-1-(2,2-dimethylpropoxycarbonyl) piperidine-4-carboxylic acid]
10 | 23 | CC1CCc2cnn(C3(C(=O)Nc4ccc(Cl)cc4OC(F)F)CCN(CC4(C(=O)O)CCOCC4)CC3)c21 (centres unmarked) [Compound 91, 4-[[4-[[4-chloro-2-(difluoromethoxy)phenyl]carbamoyl]-4-(6-methyl-5,6-dihydro-4H-cyclopenta[e]pyrazol-1-yl)-1-piperidyl]methy] tetrahydropyran-4-carboxylic acid]
11 | 119 | CC(C)c1ccnn1C1(C(=O)Nc2ccc(Cl)cc2OC(F)F)CCN(CC2(C(=O)O)CCN(C(=O)C[C@H]3CCOC3)CC2)CC1 [Compound 92, 4-[[4-[[4-chloro-2-(difluoromethoxy)phenyl]carbamoyl]-4-(5-isopropylpyrazol-1-yl)-1-piperidyl]methyl]-1-[2-[(3R)-tetrahydrofuran-3-yl]acetyl]piperidine-4-carboxylic acid]
12 | 539 | CC(C)c1ccnn1C1(C(=O)Nc2ccc(Cl)cc2OC(F)F)CCN(CC2(C(=O)O)CCN(C(=O)C[C@@H]3CCOC3)CC2)CC1 [Compound 93, 4-[[4-[[4-chloro-2-(difluoromethoxy)phenyl]carbamoyl]-4-(5-isopropylpyrazol-1-yl)-1-piperidyl]methyl]-1-[2-[(3S)-tetrahydrofuran-3-yl]acetyl]piperidine-4-carboxylic acid]
13 | 40.8 | CC(C)c1ccnn1C1(C(=O)Nc2ccc(Cl)cc2OC(F)F)CCN([C@H]2C[C@@H](CC(=O)O)C2)CC1 [Compound 94, (1s,3s)-2-[3-[4-[[4-chloro-2-(difluoromethoxy)phenyl]carbamoyl]-4-(5-isopropylpyrazol-1-yl)-1-piperidyl]cyclobutyl] acetic acid]
14 | 23.4 | CC(C)c1ccnn1C1(C(=O)Nc2ccc(Cl)cc2OC(F)F)CCN(C(=N)[C@@H]2C[C@@H]2C(=O)O)CC1 [Compound 96, (1S,2R)-2-[4-[[4-chloro-2-(difluoromethoxy)phenyl]carbamoyl]-4-(5-isopropylpyrazol-1-yl)piperidine-1-carboximidoyl] cyclopropanecarboxylic acid]
15 | 122 | CCOC(=O)N1CC(CN2CCC(C(=O)Nc3ccc(Cl)cc3OC(F)F)(n3nccc3C(C)C)CC2)(C(=O)O)C1 [Compound 97, 3-[[4-[[4-chloro-2-(difluoromethoxy)phenyl]carbamoyl]-4-(5-isopropylpyrazol-1-yl)-1-piperidyl]methyl]-1-ethoxycarbonyl-azetidine-3-carboxylic acid]
16 | 121 | CCC(=O)N1CCC(CN2CCC(C(=O)Nc3ccc(Cl)cc3OC(F)F)(n3ncc(OC)c3C(C)C)CC2)(C(=O)O)CC1 [Compound 98, 4-[[4-[[4-chloro-2-(difluoromethoxy)phenyl]carbamoyl]-4-(5-isopropyl-4-methoxy-pyrazol-1-yl)-1-piperidyl]methyl]-1-propanoyl-piperidine-4-carboxylic acid]
17 | 32.1 | CCOC(=O)N1CCC(CN2CCC(C(=O)Nc3ccc(Cl)cc3OC(F)F)(n3ncc(OC)c3C(C)C)CC2)(C(=O)O)CC1 [Compound 99, 4-[[4-[[4-chloro-2-(difluoromethoxy)phenyl]carbamoyl]-4-(5-isopropyl-4-methoxy-pyrazol-1-yl)-1-piperidyl]methyl]-1-ethoxycarbonyl-piperidine-4-carboxylic acid]
18 | 78.5 | CCC(=O)N1CC[C@@](CN2CCC(C(=O)Nc3ccc(Cl)cc3OC(F)F)(n3nccc3C(C)C)CC2)(C(=O)O)C1 [Compound 100, (3S)-3-[[4-[[4-chloro-2-(difluoromethoxy)phenyl]carbamoyl]-4-(5-isopropylpyrazol-1-yl)-1-piperidyl]methyl]-1-propanoyl-pyrrolidine-3-carboxylic acid]
19 | 80.9 | CCC(=O)N1CC[C@](CN2CCC(C(=O)Nc3ccc(Cl)cc3OC(F)F)(n3nccc3C(C)C)CC2)(C(=O)O)C1 [Compound 101, (3R)-3-[[4-[[4-chloro-2-(difluoromethoxy)phenyl]carbamoyl]-4-(5-isopropylpyrazol-1-yl)-1-piperidyl]methyl]-1-propanoyl-pyrrolidine-3-carboxylic acid]
20 | 158 | COCCC(=O)N1CC(CN2CCC(C(=O)Nc3ccc(Cl)cc3OC(F)F)(n3nccc3C(C)C)CC2)(C(=O)O)C1 [Compound 102, 3-[[4-[[4-chloro-2-(difluoromethoxy)phenyl]carbamoyl]-4-(5-isopropylpyrazol-1-yl)-1-piperidyl]methyl]-1-(3-methoxypropanoyl) azetidine-3-carboxylic acid]
21 | 164 | CC1(C)COc2cnn(C3(C(=O)Nc4ccc(Cl)cc4OC(F)F)CCN([C@H]4C[C@@H](C(=O)O)C4)CC3)c21 [Compound 103, (1s,3s)-3-[4-[[4-chloro-2-(difluoromethoxy)phenyl]carbamoyl]-4-(6,6-dimethyl-5H-furo[3,2-c]pyrazol-1-yl)-1-piperidyl]cyclobutanecarboxylic acid]
22 | 44.7 | CC1CCc2cnn(C3(C(=O)Nc4ccc(Cl)cc4OC(F)F)CCN([C@H]4C[C@@H](C(=O)O)C4)CC3)c21 (some centres unmarked) [Compound 104, (1s,3s)-3-[4-[[4-chloro-2-(difluoromethoxy)phenyl]carbamoyl]-4-(6-methyl-5,6-dibydro-4H-cyclopenta[c]pyrazol-1-yl)-1-piperidyl] cyclobutanecarboxylic acid]
23 | 26.9 | COCC(CN1CCC(C(=O)Nc2ccc(Cl)cc2OC(F)F)(n2nccc2C(C)C)CC1)C(=O)O (centres unmarked) [Compound 105, 2-[[4-[[4-chloro-2-(difluoromethoxy)phenyl]carbamoyl]-4-(5-isopropylpyrazol-1-yl)-1-piperidyl]methyl]-3-methoxy-propanoic acid]
24 | 40.1 | CC(C)c1ccnn1C1(C(=O)Nc2ccc(Cl)cc2OC(F)F)CCN([C@H]2C[C@@](C(=O)O)(C(F)(F)F)C2)CC1 [Compound 107, (1s,3s)-3-[4-[[4-chloro-2-(difluoromethoxy)phenyl]carbamoyl]-4-(5-isopropylpyrazol-1-yl)-1-piperidyl]-1-(trifluoromethyl) cyclobutanecarboxylic acid]
25 | 55.8 | CC(C)c1ccnn1C1(C(=O)Nc2ccc(Cl)cc2OC(F)F)CCN([C@H]2C[C@](C(=O)O)(C(F)(F)F)C2)CC1 [Compound 108, (1r,3r)-3-[4-[[4-chloro-2-(difluoromethoxy)phenyl]carbamoyl]-4-(5-isopropylpyrazol-1-yl)-1-piperidyl]-1-(trifluoromethyl)cyclobutanecarboxylic acid]

Row | SMILES | IC50 [nM]
26 | CC(C)COC(=O)N1CCC(CN2CCC(C(=O)Nc3ccc(Cl)cc3OC(F)F)(n3nccc3C(C)C)CC2)(C(=O)O)CC1 [Compound 89, 4-[[4-[[4-chloro-2-(difluoromethoxy)phenyl]carbamoyl]-4-(5-isopropylpyrazol-1-yl)-1-piperidyl]methyl]-1-isobutoxycarbonyl-piperidine-4-carboxylic acid] | 5.93

Reference: patent US20260102383A1, “LPAR1 Inhibitors” (AbbVie Inc., priority 2024, published 2026)
